How the values were obtained:
L10 mutant plants = experiment: Rescue of mutant phenotype by external application of bioactive GA3, L10 line; format: in vivo, Arabidopsis
From the text: (§1) These phenotypes are similar to loss-of-function alleles of GA biosynthetic enzymes. […] Additionally, other GA forms were also substantially lower in the L10 and 69 lines (Table 4). Both mutant phenotypes could be rescued by the external application of bioactive GA3, which is consistent with the notion that the phenotypes were a result of reduced levels of bioactive GAs.

69 mutant plants = experiment: Rescue of mutant phenotype by external application of bioactive GA3, 69 line; format: in vivo, Arabidopsis
From the text: as §1

C=C1C[C@]23C[C@@]1(O)CC[C@H]2[C@@]12C=C[C@H](O)[C@@](C)(C(=O)O1)[C@H]2[C@@H]3C(=O)O [GA3]
Flowering Time LD (Number of Leaves) (L10 mutant plants; GA3-treated L10 plants): 8 Number of Leaves
Height (L10 mutant plants; GA3-treated L10 plants): 30 cm
Internode Length (L10 mutant plants; GA3-treated L10 plants): 7 mm
Number of Flowering Branches (L10 mutant plants; GA3-treated L10 plants): 65
Rescue of mutant phenotype (L10 mutant plants; external application of GA3 to L10 mutant): rescued
Flowering Time LD (Number of Leaves) (69 mutant plants; GA3-treated 69 plants): 8 Number of Leaves
Height (69 mutant plants; GA3-treated 69 plants): 30 cm
Internode Length (69 mutant plants; GA3-treated 69 plants): 7 mm
Number of Flowering Branches (69 mutant plants; GA3-treated 69 plants): 65
Rescue of mutant phenotype (69 mutant plants; external application of GA3 to 69 mutant): rescued

From patent US7420102B2, “Dwarfism genes and dwarf plants” (Wisconsin Alumni Research Foundation, priority 2002, dated 2008)
